In ChEMBL document CHEMBL2016572, “Second-generation histone deacetylase 6 inhibitors enhance the immunosuppressive effects of Foxp3+ T-regulatory cells” (J Med Chem, 2012):
Active and inactive are the calls of the source. The calls are words filed in the database; no cut-off is given here.

Species on record: Homo sapiens
Assay: Selectivity ratio of IC50 for human recombinant HDAC1 to IC50 for human recombinant HDAC6

In order of falling Ratio IC50:
1. O=C(NO)c1ccc(Cn2c3c(c4ccccc42)CN(Cc2ccccc2)CC3)cc1  7150
2. C=CCN1CCc2c(c3ccccc3n2Cc2ccc(C(=O)NO)cc2)C1  5990
3. CN1CCc2c(n(Cc3ccc(C(=O)NO)cc3)c3ccccc23)C1  3700
4. CCN1CCc2c(c3ccccc3n2Cc2ccc(C(=O)NO)cc2)C1  3410
5. NC(=O)CCCN1CCc2c(c3ccccc3n2Cc2ccc(C(=O)NO)cc2)C1  1830
6. CC(C)N1CCc2c(c3ccccc3n2Cc2ccc(C(=O)NO)cc2)C1  1750
7. COc1ccc(CN2CCc3c(c4ccccc4n3Cc3ccc(C(=O)NO)cc3)C2)cc1  1520
8. Cc1cccc2c3c(n(Cc4ccc(C(=O)NO)cc4)c12)CCN(C)C3  636
9. COc1ccc2c(c1)c1c(n2Cc2ccc(C(=O)NO)cc2)CCN(C)C1  614
10. Cc1ccc2c(c1)c1c(n2Cc2ccc(C(=O)NO)cc2)CCN(C)C1  422
11. Cc1ccc2c3c(n(Cc4ccc(C(=O)NO)cc4)c2c1)CCN(C)C3  352
12. Cc1cc(C)c2c3c(n(Cc4ccc(C(=O)NO)cc4)c2c1)CCN(C)C3  268

Biological target: T1, Protein deacetylase HDAC6 (Homo sapiens, UniProt Q9UBN7)
T1 sequence (Q9UBN7 whole entry): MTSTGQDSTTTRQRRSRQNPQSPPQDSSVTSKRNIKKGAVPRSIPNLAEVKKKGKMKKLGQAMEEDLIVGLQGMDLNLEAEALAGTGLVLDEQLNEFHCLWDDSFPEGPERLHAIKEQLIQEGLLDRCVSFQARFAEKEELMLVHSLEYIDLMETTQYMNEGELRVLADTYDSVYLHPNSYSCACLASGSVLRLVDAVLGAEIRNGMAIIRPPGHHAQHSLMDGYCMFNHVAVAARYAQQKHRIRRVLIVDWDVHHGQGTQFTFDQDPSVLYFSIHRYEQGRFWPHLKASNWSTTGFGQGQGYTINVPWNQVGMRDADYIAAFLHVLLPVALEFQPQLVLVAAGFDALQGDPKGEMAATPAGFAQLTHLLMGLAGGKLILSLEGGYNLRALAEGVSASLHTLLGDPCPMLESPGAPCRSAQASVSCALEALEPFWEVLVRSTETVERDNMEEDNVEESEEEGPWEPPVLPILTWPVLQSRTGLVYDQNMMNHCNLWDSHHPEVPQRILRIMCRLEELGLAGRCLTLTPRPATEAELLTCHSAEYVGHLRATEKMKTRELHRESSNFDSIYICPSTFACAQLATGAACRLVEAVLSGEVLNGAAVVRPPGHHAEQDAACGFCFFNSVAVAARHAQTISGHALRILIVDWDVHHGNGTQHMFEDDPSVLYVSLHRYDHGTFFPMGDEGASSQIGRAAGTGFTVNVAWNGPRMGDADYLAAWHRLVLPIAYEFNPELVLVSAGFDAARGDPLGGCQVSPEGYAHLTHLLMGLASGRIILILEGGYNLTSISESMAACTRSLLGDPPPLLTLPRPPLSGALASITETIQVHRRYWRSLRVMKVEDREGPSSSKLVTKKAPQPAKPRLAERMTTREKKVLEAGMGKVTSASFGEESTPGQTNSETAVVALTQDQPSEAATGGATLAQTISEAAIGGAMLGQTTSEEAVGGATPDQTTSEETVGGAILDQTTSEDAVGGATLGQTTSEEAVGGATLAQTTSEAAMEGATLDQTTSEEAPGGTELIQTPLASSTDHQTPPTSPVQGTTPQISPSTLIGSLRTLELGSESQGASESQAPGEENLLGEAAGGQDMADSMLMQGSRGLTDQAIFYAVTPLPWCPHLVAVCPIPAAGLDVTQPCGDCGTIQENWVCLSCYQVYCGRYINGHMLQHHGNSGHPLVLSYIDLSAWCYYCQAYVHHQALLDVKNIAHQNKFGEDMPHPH
Assay: Inhibition of human recombinant HDAC6 using RHKKAc peptide as substrate incubated for 5 to mins prior to substrate addition measured after 2 hrs

In order of rising IC50:
1. C=CCN1CCc2c(c3ccccc3n2Cc2ccc(C(=O)NO)cc2)C1  0.972 nM
2. CN1CCc2c(n(Cc3ccc(C(=O)NO)cc3)c3ccccc23)C1  1.4 nM
3. O=C(NO)c1ccc(Cn2c3c(c4ccccc42)CN(Cc2ccccc2)CC3)cc1  1.44 nM
4. CCN1CCc2c(c3ccccc3n2Cc2ccc(C(=O)NO)cc2)C1  2.99 nM
5. COc1ccc(CN2CCc3c(c4ccccc4n3Cc3ccc(C(=O)NO)cc3)C2)cc1  3.05 nM
6. COc1ccc2c(c1)c1c(n2Cc2ccc(C(=O)NO)cc2)CCN(C)C1  3.06 nM
7. NC(=O)CCCN1CCc2c(c3ccccc3n2Cc2ccc(C(=O)NO)cc2)C1  4.06 nM
8. Cc1ccc2c(c1)c1c(n2Cc2ccc(C(=O)NO)cc2)CCN(C)C1  4.9 nM
9. CC(C)N1CCc2c(c3ccccc3n2Cc2ccc(C(=O)NO)cc2)C1  8.96 nM
10. Cc1ccc2c3c(n(Cc4ccc(C(=O)NO)cc4)c2c1)CCN(C)C3  11.5 nM
11. Cc1cccc2c3c(n(Cc4ccc(C(=O)NO)cc4)c12)CCN(C)C3  34.7 nM
12. Cc1cc(C)c2c3c(n(Cc4ccc(C(=O)NO)cc4)c2c1)CCN(C)C3  38.4 nM

Tested on: T-cell
Assay: Immunosuppressive activity against C57BL/6 mouse CFSE-labelled effector T cells assessed as inhibition of T regulatory cells-mediated proliferation at 1 uM after 3 to 4 days by flow cytometry relative to control
Type: functional, cell-based

For `CN1CCc2c(n(Cc3ccc(C(=O)NO)cc3)c3ccccc23)C1`, the inhibition was “Active”.

Tested on: not listed separately
Assay: Immunosuppressive activity against C57BL/6 mouse CFSE-labelled effector T cells assessed as Treg suppression of Teffector proliferation AUC at 1 uM after 3 to 4 days by flow cytometry relative to control
Type: functional, T-cell

With `CN1CCc2c(n(Cc3ccc(C(=O)NO)cc3)c3ccccc23)C1` the Ratio was 1.63.

Biological target: Histone deacetylase 1 (Homo sapiens, UniProt Q13547)
Sequence (Q13547 whole entry): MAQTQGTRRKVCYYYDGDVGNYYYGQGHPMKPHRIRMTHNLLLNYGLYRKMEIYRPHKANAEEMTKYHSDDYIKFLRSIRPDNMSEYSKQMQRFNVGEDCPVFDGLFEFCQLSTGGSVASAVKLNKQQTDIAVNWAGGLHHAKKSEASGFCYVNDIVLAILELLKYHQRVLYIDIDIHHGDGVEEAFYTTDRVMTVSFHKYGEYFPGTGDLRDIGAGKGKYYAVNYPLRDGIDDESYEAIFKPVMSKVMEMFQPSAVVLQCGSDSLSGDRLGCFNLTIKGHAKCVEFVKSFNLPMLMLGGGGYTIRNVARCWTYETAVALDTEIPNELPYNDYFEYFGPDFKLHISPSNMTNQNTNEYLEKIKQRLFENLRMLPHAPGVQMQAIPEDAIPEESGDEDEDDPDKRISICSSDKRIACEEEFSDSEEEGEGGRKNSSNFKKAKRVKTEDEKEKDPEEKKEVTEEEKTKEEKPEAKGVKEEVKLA
Assay: Inhibition of human recombinant HDAC1 using RHKKAc peptide as substrate incubated for 5 to mins prior to substrate addition measured after 2 hrs

In order of falling IC50:
1. Cc1cccc2c3c(n(Cc4ccc(C(=O)NO)cc4)c12)CCN(C)C3  22100 nM
2. CC(C)N1CCc2c(c3ccccc3n2Cc2ccc(C(=O)NO)cc2)C1  15700 nM
3. O=C(NO)c1ccc(Cn2c3c(c4ccccc42)CN(Cc2ccccc2)CC3)cc1  10300 nM
4. Cc1cc(C)c2c3c(n(Cc4ccc(C(=O)NO)cc4)c2c1)CCN(C)C3  10300 nM
5. CCN1CCc2c(c3ccccc3n2Cc2ccc(C(=O)NO)cc2)C1  10200 nM
6. NC(=O)CCCN1CCc2c(c3ccccc3n2Cc2ccc(C(=O)NO)cc2)C1  7450 nM
7. C=CCN1CCc2c(c3ccccc3n2Cc2ccc(C(=O)NO)cc2)C1  5820 nM
8. COc1ccc(CN2CCc3c(c4ccccc4n3Cc3ccc(C(=O)NO)cc3)C2)cc1  4640 nM
9. Cc1ccc2c3c(n(Cc4ccc(C(=O)NO)cc4)c2c1)CCN(C)C3  4050 nM
10. Cc1ccc2c(c1)c1c(n2Cc2ccc(C(=O)NO)cc2)CCN(C)C1  2070 nM
11. COc1ccc2c(c1)c1c(n2Cc2ccc(C(=O)NO)cc2)CCN(C)C1  1880 nM

Tested on: not listed separately
Assay: Immunosuppressive activity against C57BL/6 mouse CFSE-labelled effector T cells assessed as Treg suppression of Teffector proliferation AUC at 0.5 uM after 3 to 4 days by flow cytometry relative to control
Type: functional, T-cell

Compound `C=CCN1CCc2c(c3ccccc3n2Cc2ccc(C(=O)NO)cc2)C1` has a Ratio of 1.65.
